Tests used:
Type in all cases: in vivo
[1] = test system: Beet Armyworm (Spodoptera exigua) ("BAW"); assay: Bioassay on beet armyworm (BAW), 128-well diet tray assay; settings: for pest or weed control at 50 µg/cm2: Table ABC (FB), activity rating class, read-out: BAW (Biological Results, Insect species); for mortality at 50 µg/cm2: 168 h, 50 μg/cm^2 on artificial diet, second instar BAW larvae, 25° C., five to seven days, average of eight wells, read-out: BAW % Control (or Mortality) rating
How it was run: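 Percent mortality, averaged across eight wells, was read after five to seven days at 25° C. under 14:10 light-dark. Each well held one to five second-instar larvae on artificial diet that had been treated with 50 μg/cm^2 compound in 90:10 acetone-water and dried.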

[2] = test system: Cabbage Looper (Trichoplusia ni) ("CL"); assay: Bioassay on cabbage looper (CL), 128-well diet tray assay; settings: for pest or weed control at 50 µg/cm2: Table ABC (FB), activity rating class, read-out: CL (Biological Results, Insect species); for mortality at 50 µg/cm2: 168 h, 50 μg/cm^2 on artificial diet, second instar CL larvae, 25° C., five to seven days, average of eight wells, read-out: CL % Control (or Mortality) rating
How it was run: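 Percent mortality, averaged across eight replicate wells, was read after five to seven days at 25 °C under a 14:10 photoperiod. Each well held one to five second-instar T. ni on diet carrying a dried 50 μg/cm^2 dose applied in acetone-water 90:10.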

[3] = test system: Yellow Fever Mosquito "YFM" (Aedes aegypti); settings: for YFM (Biological Results, Insect species): Table ABC (FB), activity rating class; for YFM % Control (or Mortality) rating: about 1 day-old larvae, 96-well plate, room temperature, 3 days
Method: Certain molecules disclosed in this document were tested against YFM using procedures described in the following paragraph. In the reporting of the results, the “YFM Rating Table” was used (See Table Section).
Master plates containing 400 μg of a molecule dissolved in 100 μL of dimethyl sulfoxide (DMSO) (equivalent to a 4000 ppm solution) are used. A master plate of assembled molecules contains 15 μL per well. To this plate, 135 μL of a 90:10 wateracetone mixture is added to each well. A robot (Biomek® NXP Laboratory Automation Workstation) is programmed to dispense 15 μL aspirations from the master plate into an empty 96-well shallow plate (“daughter” plate). There are 6 reps (“daughter” plates) created per master. The created daughter plates are then immediately infested with YFM larvae.
The day before plates are to be treated, mosquito eggs are placed in Millipore water containing liver powder to begin hatching (4 g. into 400 mL). After the daughter plates are created using the robot, they are infested with 220 μL of the liver powder/larval mosquito mixture (about 1 day-old larvae). After plates are infested with mosquito larvae, a non-evaporative lid is used to cover the plate to reduce drying. Plates are held at room temperature for 3 days prior to grading. After 3 days, each well is observed and scored based on mortality.

Row | Compound | pest or weed control at 50 µg/cm2 [1] [%] | pest or weed control at 50 µg/cm2 [2] [%] | YFM (Biological Results, Insect species) [3] | mortality at 50 µg/cm2 [1] [%] | mortality at 50 µg/cm2 [2] [%] | YFM % Control (or Mortality) rating [3]
1 | CCN(CCc1ccc(-c2ncn(-c3ccc(OC(F)(F)F)cc3)n2)cc1)C(=O)/N=C1\SCC(=O)N1c1cc(C)ccc1C(C)C [FB54, (Z)-1-ethyl-3-(3-(2-isopropyl-5-methylphenyl)-4-oxothiazolidin-2-ylidene)-1-(4-(1-(4-(trifluoromethoxy)phenyl)-1H-1,2,4-triazol-3-yl)phenethyl)urea] | 50 to 100 | 50 to 100 | A (80-100) |  |  | 
2 | CCc1cc(C)ccc1N1/C(=N/C(=O)NCCc2ccc(-c3ncn(-c4ccc(OC(F)(F)F)cc4)n3)cc2)SCC1C (stereo not drawn) [FB56, (Z)-1-(3-(2-ethyl-4-methylphenyl)-4-methylthiazolidin-2-ylidene)-3-(4-(1-(4-(trifluoromethoxy)phenyl)-1H-1,2,4-triazol-3-yl)phenethyl)urea] | 50 to 100 | 50 to 100 | A (80-100) |  |  | 
3 | CC(C)c1cc(F)ccc1N1/C(=N/C(=O)NCCc2ccc(-c3ncn(-c4ccc(OC(F)(F)F)cc4)n3)cc2)SCC1C (stereo not drawn) [FB57] | 50 to 100 | 50 to 100 | A (80-100) |  |  | 
4 | COc1ccc(N2/C(=N/C(=O)NCCc3ccc(-c4ncn(-c5ccc(OC(F)(F)F)cc5)n4)cc3)SCC2C)c(C)c1 (stereo not drawn) [FB58, (Z)-1-(3-(4-methoxy-2-methylphenyl)-4-methylthiazolidin-2-ylidene)-3-(4-(1-(4-(trifluoromethoxy)phenyl)-1H-1,2,4-triazol-3-yl)phenethyl)urea] | 50 to 100 | 50 to 100 | A (80-100) |  |  | 
5 | Cc1cccc(C)c1N1/C(=N/C(=O)NCCc2ccc(-c3ncn(-c4ccc(OC(F)(F)F)cc4)n3)cc2)SCC1C (stereo not drawn) [FB59, (Z)-1-(3-(2,6-dimethylphenyl)-4-methylthiazolidin-2-ylidene)-3-(4-(1-(4-(trifluoromethoxy)phenyl)-1H-1,2,4-triazol-3-yl)phenethyl)urea] | 50 to 100 | 50 to 100 | A (80-100) |  |  | 
6 | Cc1ccc(N2/C(=N/C(=O)NCCc3ccc(-c4ncn(-c5ccc(OC(F)(F)F)cc5)n4)cc3)SCC2C)c(C(C)C)c1 (stereo not drawn) [FB60, (Z)-1-(3-(2-isopropyl-4-methylphenyl)-4-methylthiazolidin-2-ylidene)-3-(4-(1-(4-(trifluoromethoxy)phenyl)-1H-1,2,4-triazol-3-yl)phenethyl)urea] | 50 to 100 | 50 to 100 | A (80-100) |  |  | 
7 | C=CCN(CCc1ccc(-c2ncn(-c3ccc(OC(F)(F)F)cc3)n2)cc1)C(=O)/N=C1\SCC(=O)N1c1cc(C)ccc1C(C)C [FB61] | 50 to 100 | 50 to 100 | A (80-100) |  |  | 
8 | Cc1ccc(C(C)C)c(N2C(=O)CS/C2=N\C(=O)N(CCc2ccc(-c3ncn(-c4ccc(OC(F)(F)F)cc4)n3)cc2)CC2CC2)c1 [FB62, (Z)-1-(cyclopropylmethyl)-3-(3-(2-isopropyl-5-methylphenyl)-4-oxothiazolidin-2-ylidene)-1-(4-(1-(4-(trifluoromethoxy)phenyl)-1H-1,2,4-triazol-3-yl)phenethyl)urea] | 50 to 100 | 50 to 100 | A (80-100) |  |  | 
9 | Cc1ccc(C(C)C)c(N2C(=O)CS/C2=N\C(=O)NC2(Cc3ccc(-c4ncn(-c5ccc(OC(F)(F)F)cc5)n4)cc3)CC2)c1 [FB63, (Z)-1-(3-(2-isopropyl-5-methylphenyl)-4-oxothiazolidin-2-ylidene)-3-(1-(4-(1-(4-(trifluoromethoxy)phenyl)-1H-1,2,4-triazol-3-yl)benzyl)cyclopropyl)urea] | 50 to 100 | 50 to 100 | A (80-100) |  |  | 
10 | CS/C(=N\C(=O)NCCc1ccc(-c2ncn(-c3ccc(OC(F)(F)F)cc3)n2)cc1)Nc1cc(C)ccc1C(C)C [FB65, (Z)-methyl N-(2-isopropyl-5-methylphenyl)-N′-((4-(1-(4-(trifluoromethoxy)phenyl)-1H-1,2,4-triazol-3-yl)phenethyl)carbamoyl)carbamimidothioate] | 50 to 100 | 50 to 100 | A (80-100) |  |  | 
11 | Cc1ccc(C(C)C)c(N2/C(=N/C(=O)NCCc3ccc(-c4ncn(-c5ccc(OC(F)(F)F)cc5)n4)cc3)SCC2(C)O)c1 (stereo not drawn) [FB67, (Z)-1-(4-hydroxy-3-(2-isopropyl-5-methylphenyl)-4-methylthiazolidin-2-ylidene)-3-(4-(1-(4-(trifluoromethoxy)phenyl)-1H-1,2,4-triazol-3-yl)phenethyl)urea] | 50 to 100 | 50 to 100 | A (80-100) |  |  | 
12 | Cc1ccc(C(C)C)c(N2C(=O)CS/C2=N\C(=O)NCC(Br)c2ccc(-c3ncn(-c4ccc(OC(F)(F)F)cc4)n3)cc2)c1 (stereo not drawn) [FB71, (Z)-1-(2-bromo-2-(4-(1-(4-(trifluoromethoxy)phenyl)-1H-1,2,4-triazol-3-yl)phenyl)ethyl)-3-(3-(2-isopropyl-5-methylphenyl)-4-oxothiazolidin-2-ylidene)urea] | 50 to 100 | 50 to 100 | A (80-100) |  |  | 
13 | Cc1ccc(N2C(=O)CS/C2=N\C(=O)NCCc2ccc(-c3ncn(-c4ccc(OC(F)(F)F)cc4)n3)cc2)c(C(C)C)c1 [P26, (Z)-1-(3-(2-isopropyl-4-methylphenyl)-4-oxothiazolidin-2-ylidene)-3-(4-(1-(4-(trifluoromethoxy)phenyl)-1H-1,2,4-triazol-3-yl)phenethyl)urea] |  |  |  | 50 to 100 | 50 to 100 | A (80-100)
14 | Cc1cccc(N2C(=O)CS/C2=N\C(=O)NCCc2ccc(-c3ncn(-c4ccc(OC(F)(F)F)cc4)n3)cc2)c1C(C)C [P27, (Z)-1-(3-(2-isopropyl-3-methylphenyl)-4-oxothiazolidin-2-ylidene)-3-(4-(1-(4-(trifluoromethoxy)phenyl)-1H-1,2,4-triazol-3-yl)phenethyl)urea] |  |  |  | 50 to 100 | 50 to 100 | A (80-100)
15 | CCCc1ccc(C)cc1N1C(=O)CS/C1=N\C(=O)NCCc1ccc(-c2ncn(-c3ccc(OC(F)(F)F)cc3)n2)cc1 [P29, (Z)-1-(3-(5-methyl-2-propylphenyl)-4-oxothiazolidin-2-ylidene)-3-(4-(1-(4-(trifluoromethoxy)phenyl)-1H-1,2,4-triazol-3-yl)phenethyl)urea] |  |  |  | 50 to 100 | 50 to 100 | A (80-100)
16 | CC(C)(C)c1ccccc1N1C(=O)CS/C1=N\C(=O)NCCc1ccc(-c2ncn(-c3ccc(OC(F)(F)F)cc3)n2)cc1 [P30, (Z)-1-(3-(2-(tert-butyl)phenyl)-4-oxothiazolidin-2-ylidene)-3-(4-(1-(4-(trifluoromethoxy)phenyl)-1H-1,2,4-triazol-3-yl)phenethyl)urea] |  |  |  | 50 to 100 | 50 to 100 | A (80-100)
